Where a SMILES comes first, the peptide text is derived from it.
Assays:
Type in all cases: in vivo, mouse
MeCP2-/y mice = experiment: Heart rate measurements (Example 10); conditions: 8 weeks old, treated from P15
Experimental: Real time cardiac pulse rate is measured using a tail clip sensor (Mouse OX Oximeter—Oakmont, Pa.). Mice are not anesthetized but physically restrained in a fitted open plastic tube. Prior to the recording session the tube is placed overnight in the cages housing the experimental animals to allow habituation. Body temperature is maintained at ˜82-84° F. throughout the recording time. We record 3 trials of 15 minutes for each mouse, mice are 8 weeks old and treated with vehicle or G-2-MePE from P15.

MeCP2 deficient mice = experiment: Survival after oral administration (Example 11); conditions: 20 or 80 mg/kg daily
Experimental: Therefore, we administer G-2-MePE orally to MeCP2 deficient mice as described in US 2009/0074865. Briefly, an aqueous solution, a water-in-oil emulsion (micro-emulsion, coarse emulsion or liquid crystal), or a gel composition containing a pharmaceutically effective amount of G-2-MePE (20 or 80 mg/kg per animal) is administered daily. In control MeCP2 deficient animals, we administer saline only, and wild-type animals are used to obtain baseline data similar to the design of studies described in Example 8 above.

[1] = test system: heterozygous Shank3-deficient mice; experiment: Social interaction and ultrasonic vocalization, Shank3-deficient mice (Example 13); conditions: 15 or 60 mg/kg oral b.i.d. 14 days; vs placebo
Experimental: 1 to 3 month old wild type and heterozygous Shank3-deficient mice are divided into 4 treatment groups: placebo treated wild-type, placebo treated Shank3-deficient group and two Shank3-deficient G-2-MePE treated groups. The animals are given placebo (water) or G-2-MePE formulated in water administered orally, b.i.d for 14 days. G-2-MePE is administered at two doses: 15 or 60 mg/kg.
Behavioral assessments are made at several time points, and include analysis of social interactions and ultrasonic social communication, in line with the methodology described by Bozdagi et al. Briefly, male-female social interactions in each treatment group are evaluated. The subject males are group-housed and individually tested in clean cages with clean litter. Each testing session lasts 5 min. […] Videos from the male subjects are subsequently scored by an investigator uninformed of the subject's genotype and treatment group on measures of nose-to-nose sniffing, nose-to-anogenital sniffing and sniffing of other body regions, using Noldus Observer software (Noldus Information Technology, Leesburg, Va., USA). Ultrasonic vocalizations are identified manually by two highly trained investigators blinded to genotype/treatment group information, and summary statistics are calculated using the Avisoft package. […] Data are analysed using an unpaired Student's t-test.

fmr1 knockout mice [2] = experiment: Elevated plus maze, fmr1 knockout mice
Experimental: G-2-MePE was administered at the dose of 100 mg/kg i.p. in 0.1 ml saline, once daily for 28 days. Vehicle-treated animals were injected with 0.1 ml saline daily for 28 days. Thereafter, drug or vehicle treatments were stopped and animals were tested on successive days until all tests were completed. Finally, the animals were sacrificed for determining expression of pAkt and pERK The Elevated Plus Maze (EPM) is a further test system for examining anxiety and locomotor activity. The EPM was built according to the description of Lister (Lister 1987). Briefly, the maze consisted of two open and two closed arms opposite each other in a plus shape, raised above floor height. The open arms were more exposed and therefore more anxiogenic. Wild-type mice therefore spent more time in the closed arms and visited them more. Mice were tested for 5 min and their behaviour was recorded. Measures taken included time spent in the arms and the center of the maze, and number of arm entries.

fmr1 knockout mice [3] = experiment: Social behavior, bouts of sniffing, fmr1 knockout mice; conditions: 100 mg/kg i.p. 28-day
Experimental: G-2-MePE was administered at the dose of 100 mg/kg i.p. in 0.1 ml saline, once daily for 28 days. Vehicle-treated animals were injected with 0.1 ml saline daily for 28 days. Thereafter, drug or vehicle treatments were stopped and animals were tested on successive days until all tests were completed. Finally, the animals were sacrificed for determining expression of pAkt and pERK Mice are a social species, which engage in easily scored social behaviors including approaching, following, sniffing, allogrooming, aggressive encounters, sexual interactions, parental behaviors, nesting and sleeping in a group huddle. In the present studies, social recognition and social memory in mice were evaluated by assessing the amount of time spent sniffing a novel mouse upon repeated exposures, to induce familiarity, and reinstatement of high levels of sniffing when a novel stimulus animal is introduced.

C[C@@]1(C(=O)N[C@@H](CCC(=O)O)C(=O)O)CCCN1C(=O)CN [Example G-2-MePE, Glycyl-L-2-methylprolyl-L-glutamic acid] (HELM PEPTIDE1{G.[C[C@@]1(C(=O)[*:2])CCCN1[*:1]].E}$$$$V2.0)
occurrence of irregular, lower heart rate (MeCP2-/y mice): significantly reduced | survival (MeCP2 deficient mice): survival is increased substantially | cumulative duration of total social sniffing [1]: significant increase | number of ultrasonic vocalizations [1]: increased number of ultrasonic vocalizations | percent open arm entries (fmr1 knockout mice [2]; 100 mg/kg i.p. 28 days): completely normalised | time spent in the centre (fmr1 knockout mice [2]; 28-days treatment): normalised | heightened sniffing of the presented mouse (fmr1 knockout mice [3]; fmr1 KO): nullified | sniffing (fmr1 knockout mice [3]; wild-type group): no significant effect

— patent US20150224164A1, “TREATMENT OF AUTISM SPECTRUM DISORDERS USING GLYCYL-L-2-METHYLPROLYL-L-GLUMATIC ACID” (Neuren Pharmaceuticals Limited, priority 2013, published 2015)
